HELM strings list units from the 5' end as sugar, base in round brackets, then linkage (d deoxyribose, r ribose, m 2'-O-methyl, p phosphodiester). Strings are as the collection lists them; they lack the last nucleoside at the 3' end of the tested compound. [moe] = 2'-O-(2-methoxyethyl) (MOE); [sp] = phosphorothioate linkage; [m5C] = 5-methylcytosine
Biological target: PRNP
Assay: mouse, dose not given
Settings: ASO

Point of comparison: “RNA1{[moe]([m5C])[sp].[moe](G)p.[moe](T)p.[moe]([m5C])p.[moe]([m5C])p.[moe](A)p.d(T)[sp].d(T)[sp].d(T)[sp].d(T)[sp].d([m5C])[sp].d(T)[sp].d(G)[sp].d(T)[sp].d(G)[sp].d([m5C])[sp].[moe](T)p.[moe](T)[sp].[moe](T)}$$$$ (last 3' nucleoside missing)”, 3 h FOB score 6.25 score 0-7. Against it:
- RNA1{[moe]([m5C])[sp].[moe](A)p.[moe](G)p.[moe](T)p.[moe](G)[sp].d(T)[sp].d(T)[sp].d([m5C])[sp].d([m5C])[sp].d(A)[sp].d(T)[sp].d([m5C])[sp].d([m5C])[sp].d(T)[sp].d([m5C])[sp].[moe]([m5C])p.[moe](A)p.[moe](G)[sp].[moe](G)}$$$$ (last 3' nucleoside missing) — lower, 1 score 0-7
- RNA1{[moe]([m5C])[sp].[moe](A)p.[moe](G)p.[moe](T)p.[moe](T)[sp].d(T)[sp].d(T)[sp].d(T)[sp].d([m5C])[sp].d([m5C])[sp].d([m5C])[sp].d([m5C])[sp].d(A)[sp].[moe]([m5C])p.[moe](A)p.[moe](T)[sp].[moe](A)}$$$$ (last 3' nucleoside missing) — lower, 0 score 0-7
- RNA1{[moe]([m5C])[sp].[moe](A)p.[moe](T)p.[moe](T)p.[moe](T)[sp].d(G)[sp].d(A)[sp].d(T)[sp].d(T)[sp].d(T)[sp].d([m5C])[sp].d(A)[sp].d(A)[sp].d(G)[sp].d(T)[sp].[moe]([m5C])p.[moe]([m5C])p.[moe]([m5C])[sp].[moe](A)}$$$$ (last 3' nucleoside missing) — lower, 3 score 0-7
- RNA1{[moe]([m5C])[sp].[moe](A)p.[moe]([m5C])p.[moe](A)p.[moe]([m5C])p.d(T)[sp].d(G)[sp].d(A)[sp].d([m5C])[sp].d([m5C])[sp].d(A)[sp].d(T)[sp].d(T)[sp].d(T)[sp].[moe](T)p.[moe](T)p.[moe](T)[sp].[moe](A)}$$$$ (last 3' nucleoside missing) — lower, 0 score 0-7
- RNA1{[moe]([m5C])[sp].[moe](G)[sp].[moe](T)p.[moe]([m5C])p.[moe]([m5C])p.[moe](A)p.[moe](T)p.d(T)[sp].d(T)[sp].d(T)[sp].d([m5C])[sp].d(T)[sp].d(G)[sp].d(T)[sp].d(G)[sp].d([m5C])[sp].d(T)[sp].[moe](T)p.[moe](T)}$$$$ (last 3' nucleoside missing) — lower, 5.5 score 0-7
- RNA1{[moe]([m5C])[sp].[moe](G)p.[moe](G)p.[moe](G)p.[moe](T)[sp].d(T)[sp].d(T)[sp].d(T)[sp].d([m5C])[sp].d(T)[sp].d(T)[sp].d(A)[sp].d(A)[sp].d(A)[sp].d(A)[sp].[moe](T)p.[moe](G)p.[moe](G)[sp].[moe](A)}$$$$ (last 3' nucleoside missing) — lower, 2 score 0-7
- RNA1{[moe]([m5C])[sp].[moe](G)p.[moe](T)p.[moe](T)p.[moe](G)[sp].d(T)[sp].d(T)[sp].d(G)[sp].d(A)[sp].d(T)[sp].d(T)[sp].d(T)[sp].d(T)[sp].d(T)[sp].d([m5C])[sp].[moe]([m5C])p.[moe](A)p.[moe](G)[sp].[moe](A)}$$$$ (last 3' nucleoside missing) — lower, 1.75 score 0-7
- RNA1{[moe]([m5C])[sp].[moe](G)p.[moe](T)p.[moe](T)p.[moe]([m5C])[sp].d(A)[sp].d(T)[sp].d([m5C])[sp].d(T)[sp].d(T)[sp].d(A)[sp].d(T)[sp].d(T)[sp].d([m5C])[sp].d([m5C])[sp].[moe]([m5C])p.[moe](A)p.[moe](T)[sp].[moe](T)}$$$$ (last 3' nucleoside missing) — lower, 1 score 0-7
- RNA1{[moe]([m5C])[sp].[moe](G)p.[moe](T)p.[moe]([m5C])p.d([m5C])[sp].d(A)[sp].d(T)[sp].d(T)[sp].d(T)[sp].d(T)[sp].d([m5C])[sp].d(T)[sp].d(G)[sp].d(T)[sp].[moe](G)p.[moe]([m5C])p.[moe](T)p.[moe](T)[sp].[moe](T)}$$$$ (last 3' nucleoside missing) — lower, 3 score 0-7
- RNA1{[moe]([m5C])[sp].[moe](G)p.[moe](T)p.d([m5C])[sp].d([m5C])[sp].d(A)[sp].d(T)[sp].d(T)[sp].d(T)[sp].d(T)[sp].d([m5C])[sp].d(T)[sp].d(G)[sp].[moe](T)p.[moe](G)p.[moe]([m5C])p.[moe](T)p.[moe](T)[sp].[moe](T)}$$$$ (last 3' nucleoside missing) — lower, 0 score 0-7
- RNA1{[moe]([m5C])[sp].[moe](T)[sp].[moe](A)p.[moe](T)p.[moe](G)p.[moe](T)p.[moe](T)p.d(T)[sp].d(T)[sp].d([m5C])[sp].d([m5C])[sp].d(A)[sp].d(G)[sp].d(T)[sp].d(G)[sp].d([m5C])[sp].d([m5C])[sp].[moe]([m5C])p.[moe](A)}$$$$ (last 3' nucleoside missing) — lower, 4.75 score 0-7
- RNA1{[moe]([m5C])[sp].[moe](T)[sp].[moe]([m5C])p.[moe](T)p.[moe](A)p.[moe](T)p.[moe](G)p.d(T)[sp].d(T)[sp].d(T)[sp].d(T)[sp].d([m5C])[sp].d([m5C])[sp].d(A)[sp].d(G)[sp].d(T)[sp].d(G)[sp].[moe]([m5C])p.[moe]([m5C])}$$$$ (last 3' nucleoside missing) — lower, 6 score 0-7
- RNA1{[moe]([m5C])[sp].[moe](T)p.[moe](A)p.[moe](G)p.[moe](T)[sp].d(A)[sp].d(A)[sp].d(G)[sp].d(A)[sp].d(A)[sp].d([m5C])[sp].d(T)[sp].d(T)[sp].d(A)[sp].d(T)[sp].[moe]([m5C])p.[moe]([m5C])p.[moe]([m5C])[sp].[moe](A)}$$$$ (last 3' nucleoside missing) — lower, 0 score 0-7
- RNA1{[moe]([m5C])[sp].[moe](T)p.[moe](A)p.[moe](T)p.[moe](G)[sp].d(A)[sp].d(T)[sp].d(G)[sp].d(A)[sp].d(T)[sp].d(G)[sp].d(G)[sp].d(T)[sp].d(G)[sp].d([m5C])[sp].[moe](T)p.[moe](T)p.[moe](T)[sp].[moe]([m5C])}$$$$ (last 3' nucleoside missing) — lower, 6 score 0-7
- RNA1{[moe]([m5C])[sp].[moe](T)p.[moe](A)p.[moe](T)p.[moe](G)[sp].d(T)[sp].d(T)[sp].d(T)[sp].d(T)[sp].d([m5C])[sp].d([m5C])[sp].d(A)[sp].d(G)[sp].[moe](T)p.[moe](G)p.[moe]([m5C])[sp].[moe]([m5C])}$$$$ (last 3' nucleoside missing) — lower, 0 score 0-7
- RNA1{[moe]([m5C])[sp].[moe](T)p.[moe](A)p.[moe](T)p.[moe](G)[sp].d(T)[sp].d(T)[sp].d(T)[sp].d(T)[sp].d([m5C])[sp].d([m5C])[sp].d(A)[sp].d(G)[sp].d(T)[sp].d(G)[sp].[moe]([m5C])p.[moe]([m5C])p.[moe]([m5C])[sp].[moe](A)}$$$$ (last 3' nucleoside missing) — lower, 3 score 0-7
- RNA1{[moe]([m5C])[sp].[moe](T)p.[moe](A)p.[moe](T)p.[moe](G)p.[moe](T)p.d(T)[sp].d(T)[sp].d(T)[sp].d([m5C])[sp].d([m5C])[sp].d(A)[sp].d(G)[sp].d(T)[sp].d(G)[sp].d([m5C])[sp].[moe]([m5C])p.[moe]([m5C])[sp].[moe](A)}$$$$ (last 3' nucleoside missing) — lower, 3.75 score 0-7
- RNA1{[moe]([m5C])[sp].[moe](T)p.[moe](A)p.[moe](T)p.[moe](G)p.d(T)[sp].d(T)[sp].d(T)[sp].d(T)[sp].d([m5C])[sp].d([m5C])[sp].d(A)[sp].d(G)[sp].d(T)[sp].[moe](G)[sp].[moe]([m5C])p.[moe]([m5C])p.[moe]([m5C])}$$$$ (last 3' nucleoside missing) — lower, 0.75 score 0-7
- RNA1{[moe]([m5C])[sp].[moe](T)p.[moe](A)p.[moe](T)p.[moe](G)p.d(T)[sp].d(T)[sp].d(T)[sp].d(T)[sp].d([m5C])[sp].d([m5C])[sp].d(A)[sp].d(G)[sp].d(T)[sp].[moe](G)p.[moe]([m5C])p.[moe]([m5C])[sp].[moe]([m5C])}$$$$ (last 3' nucleoside missing) — lower, 1 score 0-7
- RNA1{[moe]([m5C])[sp].[moe](T)p.[moe](A)p.[moe](T)p.d(G)[sp].d(T)[sp].d(T)[sp].d(T)[sp].d(T)[sp].d([m5C])[sp].d([m5C])[sp].d(A)[sp].d(G)[sp].d(T)[sp].[moe](G)p.[moe]([m5C])p.[moe]([m5C])p.[moe]([m5C])[sp].[moe](A)}$$$$ (last 3' nucleoside missing) — lower, 1.25 score 0-7
- RNA1{[moe]([m5C])[sp].[moe](T)p.[moe](A)p.d(T)[sp].d(G)[sp].d(T)[sp].d(T)[sp].d(T)[sp].d(T)[sp].d([m5C])[sp].d([m5C])[sp].d(A)[sp].d(G)[sp].[moe](T)p.[moe](G)p.[moe]([m5C])p.[moe]([m5C])p.[moe]([m5C])[sp].[moe](A)}$$$$ (last 3' nucleoside missing) — lower, 0.25 score 0-7
- RNA1{[moe]([m5C])[sp].[moe](T)p.[moe](G)p.[moe](G)p.[moe](T)[sp].d(G)[sp].d(A)[sp].d(T)[sp].d(T)[sp].d(T)[sp].d(T)[sp].d(T)[sp].d(T)[sp].d([m5C])[sp].d([m5C])[sp].[moe](T)p.[moe](T)p.[moe](T)[sp].[moe]([m5C])}$$$$ (last 3' nucleoside missing) — lower, 0 score 0-7
- RNA1{[moe]([m5C])[sp].[moe](T)p.[moe](G)p.[moe](T)p.[moe](T)[sp].d(A)[sp].d(T)[sp].d(G)[sp].d(T)[sp].d(T)[sp].d(A)[sp].d(T)[sp].d(T)[sp].d(A)[sp].d(T)[sp].[moe](T)p.[moe](G)p.[moe](T)[sp].[moe](T)}$$$$ (last 3' nucleoside missing) — lower, 3.75 score 0-7
- RNA1{[moe]([m5C])[sp].[moe](T)p.[moe](G)p.[moe](T)p.[moe](T)[sp].d(G)[sp].d([m5C])[sp].d(A)[sp].d([m5C])[sp].d(T)[sp].d(A)[sp].d(A)[sp].d(G)[sp].d(T)[sp].d([m5C])[sp].[moe]([m5C])p.[moe](A)p.[moe](A)[sp].[moe](A)}$$$$ (last 3' nucleoside missing) — lower, 1 score 0-7
- RNA1{[moe]([m5C])[sp].[moe](T)p.[moe](G)p.[moe](T)p.[moe]([m5C])[sp].d(A)[sp].d(T)[sp].d([m5C])[sp].d(T)[sp].d([m5C])[sp].d([m5C])[sp].d(A)[sp].d(A)[sp].d([m5C])[sp].d([m5C])[sp].[moe](T)p.[moe](A)p.[moe](A)[sp].[moe](G)}$$$$ (last 3' nucleoside missing) — lower, 1 score 0-7

From the OligoGym collection
